In experiment [1] the target is Chymotrypsinogen A (Bos taurus, UniProt P00766). The experiment in a line: Binding affinity against alpha-chymotrypsin.
In experiment [2] the target is Chymotrypsinogen A (Bos taurus) (UniProt P00766).

“And” between values parts separate entries of the source, which are not always exact repeats. Equal values may be shown once.

One may read the Ki as a measure of affinity in units of concentration, obtained from inhibition or displacement.

As for `COC(=O)[C@@H](Cc1ccccc1)[C@H]1CO1`, in experiment [1], the Ki is 9.95 mM and 3.23 mM. The Kiact in experiment [2] was 5.24 min⁻¹.

(Values after ChEMBL document CHEMBL1127766, “Stereochemical approach for enzyme inhibitor design” (Bioorg Med Chem Lett, 1994).)
